Key:
Type in all cases: in vivo, mouse
[1] = Serum insulin, ALT and creatinine assays in Lepr^db/db mice; details: 0.136 mg/kg ip daily
Protocol: Male Lepr^db/db mice at 38 days of age were intraperitoneally (ip) injected daily with physiological saline ([…]) containing 0.2% DMSO, and Compound #43 (0.136 mg per kilogram body weight, diluted in sterile physiological saline) for 52 days. Sera from 3-month-old wild-type (non-diabetic) C57 mice were also collected. After the treatments, these serum samples were collected and subjected to insulin, ALT and creatinine assays.
The serum levels of insulin, ALT and creatinine were determined using Themo-Fisher Scientific's Insulin Mouse ELISA kit (Cat #EMINS), Sigma's ALT Activity Assay kit (Cat #MAK052), and Abcam's Creatinine Assay kit (Cat #Ab65340) according to the manufacturer's protocol, respectively.

Glut4 = assay: QRT-PCR of Glut4 mRNA in livers of Lepr^db/db mice; details: 25 μg selenium/kg ip daily, 52 days (FIG. 15)
Protocol: Male Lepr^db/db mice (C57BL/6J strain, purchased from The Jackson Laboratory) at postnatal day 38 were intraperitoneally injected daily with physiological saline ([…]) containing 0.2% DMSO, Compound #43, or Compound #50 (25 μg selenium of each compound per kilogram body weight, diluted in sterile physiological saline) for 52 days. After treatment, livers were collected and subjected to RNA analysis.
(§1) Total liver RNA from saline- or Compound #43-treated Lepr^db/db mice was isolated using a Qiagen RNAeasy RNA isolation kit according to the Manufacturer's protocol. Total RNA from cultured cells was isolated using Trizol (Invitrogen) according to the manufacturer's protocol, and then incubated with DNase I to remove any potential contaminating genomic DNA. RNA samples were subjected to real-time PCR analysis using Applied-Bioscience's RT kit and predesigned Taqman probes (Invitrogen), as described previously (Lan et al EMBO J 2003). Data were normalized by Actin B (Actb) mRNA levels in each sample and are presented as mean±SEM of 3-5 samples.

G6pc = assay: QRT-PCR of G6pc mRNA in livers of Lepr^db/db mice; details: 25 μg selenium/kg ip daily, 52 days (FIG. 9)
Protocol: Male Lepr^db/db mice (C57BL/6J strain, purchased from The Jackson Laboratory) at 38-days of age were intraperitoneally injected daily with physiological saline ([…]) containing 0.2% DMSO, Compound #50, or Compound #43 (25 μg selenium equivalent of each compound per kilogram body weight, diluted in the sterile physiological saline) for 52 days. After the treatment, livers were collected and subjected RNA analysis.
as §1, with “Total” for “Total liver”, “or selenium compound-treated” for “or Compound #43-treated”, “PCR (QRT-PCR)” for “PCR”, “each sample,” for “each sample”

Lepr^db/db mice [2] = assay: Chronic treatment: fasting blood glucose and HbA1c in Lepr^db/db mice
Protocol: Male Lepr^db/db mice at 38 days of age were intraperitoneally (ip) injected daily with physiological saline ([…]) containing 0.2% DMSO, Compound #C, Compound #50, Compound #68, and/or Compound #43 (25 μg selenium or sulfur equivalents of each compound per kilogram body weight, diluted in sterile physiological saline) for periods ranging from 43-90 days. Body weights of the above treated mice were recorded daily using a balance and any visible abnormal animal gross morphology and walking behavior were monitored daily. After the treatments, animals were fasted overnight and then subjected to blood glucose or HbA1c assays, glucose tolerance tests or tissue collections.
For comparative studies of any potential anti-diabetic effects of Compounds #43, #69 and #70, male Lepr^db/db mice at 41 days of age were intraperitoneally (ip) injected daily with physiological saline ([…]) containing 0.2% DMSO, Compound #43, Compound #69, or Compound #70 (25 μg selenium of each compound per kilogram body weight, diluted in sterile physiological saline). After the treatments for 43 days, animals were fasted overnight and then subjected to blood glucose and glucose tolerance tests. After daily treatments of these compounds for 90 days, sera from these animals were collected and then subjected to blood HbA1c assays.
(§2) After treatment with physiological saline or compounds or after the injection of a bolus of glucose, a small drop of blood from each mouse was collected by snipping the mouse tail tip. Blood glucose levels were determined using a Glucometer with a maximum capability for glucose measurement of 600 mg/dL.
After saline or compound treatments, a small drop of blood from the mouse tail was collected in an EDTA-coated eppendorf tube (to prevent blood coagulation) (Fisher Scientific), and then subjected to a HbA1c assay using the Crystal Chem's or Kamiya's mouse glycated hemoglobin A1c ELISA kit, according to the manufacturer's protocol. Also after the final treatments, mouse serum was collected and subjected to HbA1c assay using the Kamiya Biomeidcal Company's mouse HbA1c kit, according to the manufacturer's protocol.

Lepr^db/db mice [3] = assay: Acute treatment: blood glucose in Lepr^db/db mice
Protocol: After overnight fasting, 8-10-week-old Lepr^db/db mice were intraperitoneally injected with physiological saline ([…]) containing 0.2% DMSO, or Compound #43 (0.0054, 0.054, 0.54, or 5.4 mg Compound #43 (the compound stock was diluted in sterile physiological saline) per kilogram of body weight. Following the injection of saline or compound, mice were returned to their cages with free access to water but not chow for 1, 2, 3, 5 and 8 hr. At each time point after injection, a small drop of blood was collected from the tail of each mouse for glucose assay.
Additional 6-week old Lepr^db/db mice under non-fasting conditions were intraperitoneally injected with physiological saline ([…]) containing 0.2% DMSO, or a single dose of Compound #43 (5.4 mg compound/kg body weight). After injection, animals were returned back to their cages with free access to water and chow. After 24 hr, a small drop of blood from the mouse tail was collected for glucose assay.
as §2

[4] = 25 μg selenium/kg ip daily for 43 days from 41 days of age (FIG. 5)
[5] = 25 μg selenium/kg ip daily, 3 months (FIG. 4)

For `C[Se]C[C@H]1O[C@@H](n2cnc3c(N)ncnc32)C(OC(C)=O)C1OC(C)=O` (stereo partly shown) [Compound #43, Adenosine, 5′-Se-methyl-5′-selino-, 2′,3′-diacetate], the “decrease of serum insulin levels” value ([1]; 52 days (FIG. 24A)) was “about 80%”, the “serum ALT levels” value ([1]; 52 days (FIG. 24B)) was “significant decrease of serum ALT levels” and the serum creatinine levels ([1]; 52 days (FIG. 24C)) was “no significant change in serum creatinine levels”. The “increase in Glut4 mRNA expression levels in the liver” value (Glut4) was 5 fold, the “reduction of G6pc mRNA levels in the liver vs saline” value (G6pc) was “about 56%” and the “effect on fasting blood glucose levels” value (Lepr^db/db mice [2]; 25 μg selenium or sulfur/kg ip daily, 3 months (FIG. 4)) was “statistically significant decrease in fasting blood glucose levels”. The “decrease in fasting blood glucose levels vs saline” value (Lepr^db/db mice [2]; [4]) was roughly 35%, the “fasting blood glucose levels” value (Lepr^db/db mice [2]; [4]) was 188 mg/dL and the “effect on HbA1c levels” value (Lepr^db/db mice [2]; 25 μg selenium/kg ip daily for 90 days from 41 days of age (FIG. 5)) was “significant decrease of HbA1c levels”. The “reduction in serum HbA1c levels compared to saline” value (Lepr^db/db mice [2]; 25 μg selenium/kg ip daily from day 38, measured at 90 days of age (FIG. 3)) was roughly 20%, the “reduction of fasting blood glucose levels compared to controls” value (Lepr^db/db mice [2]; 25 μg selenium/kg ip daily from day 38, measured at day 81 (FIG. 3)) was “about 45%” and the “decrease of blood HbA1c levels compared to saline” value (Lepr^db/db mice [2]; [5]) was “about 30%”. For the same molecule, the fasting glucose levels (Lepr^db/db mice [2]; [5]) was “about 135 mg/dL”, the “decrease of blood glucose levels” value (Lepr^db/db mice [3]; 5.4 mg/kg single ip, 24 hr, 6-week-old mice, ad-libitum feeding (FIG. 7)) was “about 20%” and the “duration of effectiveness in lowering glucose output” value (Lepr^db/db mice [3]; 5.4 mg/kg single ip, feeding conditions) was “at least 24 hr”. The “effect on blood glucose levels vs saline” value (Lepr^db/db mice [3]; single ip 0.0054, 0.054, 0.54, 5.4 mg/kg, fasting, 1-8 hr (FIG. 6)) was “significant decrease of blood glucose levels”, the duration of activity (Lepr^db/db mice [3]; single ip injection, fasting) was “at least 8 hours” and the “onset of action post-treatment” value (Lepr^db/db mice [3]; single ip injection, fasting) was no more than 1 h. The “time of peak activity in reducing blood glucose levels” value (Lepr^db/db mice [3]; single ip injection, fasting conditions) was 2 to 5 h.

Reference: US11613552B2, “Pharmaceutical agents, compositions, and methods relating thereto” (Alltech, Inc., priority 2017, dated 2023)
